Patent US4466980A, “Thiaprostaglandin E1 derivatives, process for production thereof, and pharmaceutical use thereof” (Teijin Limited, priority 1980, dated 1984)
Values after ≈ are worked out from the molar mass of the structure shown.

Experiments:
platelet aggregation [1] = assay: platelet aggregation inhibiting activity of prior 11-deoxy-7S-prostaglandins E1 (inventors' investigations); format: cell-based
platelet aggregation [2] = assay: in vitro inhibitory activity of platelet aggregation (ADP); format: cell-based, rabbit (Japanese domestic white male); conditions: Oryctolagus cuniculus, rabbit PRP, 10 μM ADP, 37° C., read-out: IC50 (minimum concentration which inhibited more than 50% of platelet aggregation)
Experimental: The in vitro platelet aggregation imhibiting activity of the compounds of the invention were examined by using rabbits. Blood was withdrawn from the ear vein of Japanese domestic white male rabbits weighing 2.5 to 3.5 kg. A mixture of a 3.8% trisodium citrate solution and the blood in a ratio of 1:9 was centrifuged at a speed of 1000 rpm for 10 minutes. The upper layer was separated as platelet-rich plasma (PRP). The lower layer was further centrifuged at a speed of 2800 rpm for 10 minutes. The upper layer was separated as platelet-poor plasma (PPP). The number of platelets was adjusted to 6×10^5 /μl to 7×10^5 /μl by diluting the PRP with PPP. 25 microliters of the test compounds prepared as shown below was added in an amount of 25 to 250 microliters of PRP after the adjustment, and the mixture was pre-incubated at 37° C. for 2 minutes, and then 10 μM (final) of ADP was added. By using an aggregometer, changes in transmission were recorded.
The drug was dissolved in ethanol to a concentration of 10 mg/ml, and successively diluted with phosphate buffer (pH 7.4) prior to use.
The rate of inhibition of platelet aggregation was determined from the following equation. [formula] To : the transmittance of the system containing the phosphate buffer, T: the transmittance of the sytem to which the test drug was added.
The minimum concentration of the drug which inhibited more than 50% of platelet aggregation was shown as an IC50 value.

ethanol ulcer (stomach) = assay: ethanol ulcer test (anti-ulcer action); format: in vivo, SD-strain rats
Experimental: An ethanol ulcer test was carried out by the following processure.
SD-strain rats (body weight 200 to 220 g; 7 weeks old) were fasted for 24 hours, and a solution of each of the test compounds in physiological saline buffered with phosphate buffer at pH 7.5 was orally administered. Thirty minutes after the administration, 75% ethanol was orally administered in a dose of 1 ml/kg. One hour later, the abdomen was incised to isolate the stomach. […] The total of these lengths was defined as the ulcer index. A control group was given physiological saline buffered with phosphate buffer (pH 7.5) and 75% ethanol.

[3] = tested on: blood pressure and heart beat rate of rats; assay: hypotensive activity and heart beat rate, intravenous injection in anesthetized rats; format: in vivo, male wister rats; conditions: Rattus norvegicus, i.v.; for ED (10% increase of heart rate): read-out: H-ED10 (dosage causing a 10% increase of the heart rate); for ED (20% lowering of blood pressure): read-out: P-ED20 (dosage causing a 20% lowering of the mean blood pressure)
Experimental: (1) The actions of the thiaprostaglandin E1 derivatives of the invention on the blood pressure and heart beat rate of rats were examined by intravenous injection under anesthesia. Male wister rats weighing about 250 g were used. Urethane (500 mg/kg) and α-chloralose (100 mg/kg) were intraperitoneally administered to the rats. The rats were anesthetized and fixed in place. Each of the test compounds was dissolved in a small amount of ethanol and diluted with physiological saline to adjust the final ethanol concentration to not more than 5%. The solution was intravenously injected into the rats through a catheter inserted into the femoral vein. The blood pressure of the rats was measured by a pressure transducer through a catheter inserted into the carotid artery of the rats. The heart beat rate was determined from the blood pressure pulse. The action of the test compound of the blood pressure was expressed as the dosage (p-ED20, μg/kg) of the test compound which caused a 20% lowering of the mean blood pressure before administration of the compound. The action of the test compound on the heart rate was expressed as the dosage (H-ED10, μg/kg) of the test compound which caused a 10% increase of the heart rate from the heart beat rate before administration of the test compound.

platelet aggregation [4] = assay: extra vivo inhibitory activity of platelet aggregation after oral administration; format: in vivo, guinea pigs (Hartley strain); conditions: Cavia porcellus; for inhibition at 3 mg/kg: 3 mg/kg p.o.; for inhibition at 10 mg/kg: 10 mg/kg p.o.
Experimental: The extra vivo platelet aggregation inhibitory activity of the 7-thiaprostaglandin E1 derivatives of the invention were measured by using guinea pigs. A test drug prepared as a 30% ethanol solution of each of the compounds of the invention in ethanol diluted with physiological saline and as a control 30% ethanol solution were orally adminstered in a dose of 1 ml/kg to Hartleystrain guinea pigs having a body weight of 350 to 450 g which had been fasted for 17 hours. 1 hour or 4 hours after the administration of the compound, blood was drawn off by the cardiac puncture using trisodium citrate so that the ratio of the blood to 3.8% trisodium citrate was 9:1. The blood was centrifuged at a speed of 700 rpm for 10 minutes. The upper layer was separated as plateletrich plasma (PRP). The lower layer was further centrifuged at a speed of 2800 rpm for 10 minutes. The upper layer was separated as platelet poor plasma (PPP). 250 microliters of the resulting PRP was taken into an aggregometer cuvette, and incubated at 37° C. for 2 minutes. Then, 25 microliters of a […] ADP disodium solution adjusted by dissolving with 0.1M tris-HCl buffer (ph 8.0) was added. The aggregation curve was recorded for 3 minutes. The maximum degree of aggregation of platelets within this time period was read, and the rate of inhibitor of platelet aggregation was calculated from the following equation. [formula] TC : the transmittance of a control group (to which only the 30% ethanol solution was administered),
TD : the transmittance of a drug administered group.

[5] = tested on: blood pressure of conscious rats; assay: action on blood pressure of conscious rats, oral; format: in vivo, male wister rats
Experimental: (2) The thiaprostaglandin E1 derivatives of the invention were orally administered to conscious rats, and their action on the blood pressure was examined.
Male wister rats weighing about 250 g were used as experimental animals. These rat had been fasted for 16 hours before the start of the experiment. A catheter was inserted into the femoral artery of the rats under ether anesthesia, and then the rats were restrained within a Bollman cage. After more than 1 hour from awakening, each of the test compounds was orally administered.
The test compound was dissolved in a small amount of ethanol, and then diluted with water to adjust the final concentration of ethanol to not more than 5%. The mean blood pressure was measured by means of a pressure transducer through the catheter inserted into the femoral artery.

[6] = tested on: blood pressure of DOCA hypertensive rats; assay: action on blood pressure of conscious DOCA hypertensive rats, oral; format: in vivo, male wistar rats
Experimental: (3) The compound (No. 138) of the invention was orally adminstered to DOCA hypertensive rats (induced by deoxycholticosteron acetate) in conscious, and its action on the blood pressure was examined.
Male wistar rats weighing about 160 g were rendered hypertensive. Specifically, one kidney was removed from the rats, and DOCA was subcutaneously administered to the rats in a dose of 10 mg/kg twice a week. While the rats were allowed to drink a 1% aqueous solution of sodium chloride, they were kept for more than 4 weeks to induce hypertension. The average blood pressure was measured in the same way as described in (2) above.

[7] = Rattus norvegicus, po, 100 μg/kg p.o., read-out: Ulcer inhibiting rate (%)

`CCCCC[C@H](O)/C=C/[C@H]1CCC(=O)[C@@H]1SCCCCCC(=O)O` [11-deoxy-7S-prostaglandin E1] was tested, and the “platelet aggregation inhibiting activity (in words)” value (platelet aggregation [1]) was “very weak”.

`CCCC(C)C[C@H](O)/C=C/[C@H]1CCC(=O)[C@@H]1SCCCCCC(=O)OC` (stereo partly shown) was tested, and the “platelet aggregation inhibiting activity (in words)” value (platelet aggregation [1]) was “very weak”.

In the case of `CCCC(C)C[C@H](O)/C=C/[C@H]1CCC(=O)[C@@H]1SCCCCCC(=O)O` (stereo partly drawn) [11-deoxy-17-methyl-7S-prostaglandin E1], the “platelet aggregation inhibiting activity (in words)” value (platelet aggregation [1]) is reported as “very weak”.

For `O=C(O)CCSCCC[C@H]1C(=O)C[C@@H](O)[C@@H]1/C=C/[C@@H](O)C1CCCCC1` [Compound 403, 16,17,18,19,20-pentanor-15-cyclohexyl-4-thiaprostaglandin E1], the IC50 (platelet aggregation [2]) was 2.8 µg/mL (≈ 7.28 µM), the “Ulcer index (mm)” value (ethanol ulcer (stomach); 100 μg/kg p.o., ** P < 0.01) was 6.0 ± 3.8 mm and the inhibition at 0.1 mg/kg (ethanol ulcer (stomach); [7]) was 91.2%. For the same compound, the “antiulcer action (in words)” value (ethanol ulcer (stomach); p.o., Table 6) was “nearly the same antiulcer action as prostaglandin E1”.

For `CCCCC[C@H](O)/C=C/[C@H]1CCC(=O)[C@@H]1SCCCCCC(=O)OC`, the “platelet aggregation inhibiting activity (in words)” value (platelet aggregation [1]) was “very weak”.

`CCCCC[C@H](O)/C=C/[C@H]1[C@H](O)CC(=O)[C@@H]1CCCCCCC(=O)O` [PGE1, prostaglandin E1] was tested, and the ED (10% increase of heart rate) [3] was greater than 10 µg/kg, the ED (20% lowering of blood pressure) [3] was 1.21 µg/kg and the inhibition at 3 mg/kg (platelet aggregation [4]; 1 hr) was 0%. It also gave an inhibition at 3 mg/kg (platelet aggregation [4]; 4 hr) of 25.9%, an inhibition at 10 mg/kg (platelet aggregation [4]; 1 hr) of 0% and an inhibition at 10 mg/kg (platelet aggregation [4]; 4 hr) of 16.9%. For the same compound, the “Ulcer index (mm)” value (ethanol ulcer (stomach); 30 μg/kg p.o.) was 26.8 ± 12.5 mm, the “Ulcer index (mm)” value (ethanol ulcer (stomach); 100 μg/kg p.o., ** P < 0.01) was 1.0 ± 1.0 mm and the inhibition at 0.03 mg/kg (ethanol ulcer (stomach); Rattus norvegicus, po, 30 μg/kg p.o., read-out: Ulcer inhibiting rate (%)) was 60.8%. For the same compound, the inhibition at 0.1 mg/kg (ethanol ulcer (stomach); [7]) was 98.5%.

With `COC(=O)CCCCCS[C@H]1C(=O)C[C@@H](O)[C@@H]1/C=C/[C@@H](O)C1CCCCC1` [Compound 138, 16,17,18,19,20-pentanor-15-cyclohexyl-7-thiaprostaglandin E1 methyl ester] the ED (10% increase of heart rate) [3] was greater than 10 µg/kg, the ED (20% lowering of blood pressure) [3] was 0.68 µg/kg and the mean blood pressure ([5]; 1 mg/kg p.o., 0 min, in mmHg) was 116 + 4. It also gave a mean blood pressure ([5]; 1 mg/kg p.o., 10 min) of 99 ± 6, a mean blood pressure ([5]; 1 mg/kg p.o., 15 min) of 114 ± 2 and a mean blood pressure ([5]; 1 mg/kg p.o., 30 min) of 116 ± 4. For the same compound, the mean blood pressure ([5]; 1 mg/kg p.o., 45 min) was 119 ± 4, the mean blood pressure ([5]; 1 mg/kg p.o., 60 min) was 120 ± 4 and the mean blood pressure ([5]; 1 mg/kg p.o., 90 min) was 118 ± 3. It also gave a mean blood pressure ([5]; 1 mg/kg p.o., 120 min) of 118 ± 3, a mean blood pressure ([5]; 10 mg/kg p.o., 0 min) of 118 ± 3 and a mean blood pressure ([5]; 10 mg/kg p.o., 10 min) of 92 ± 9. The mean blood pressure ([5]; 10 mg/kg p.o., 15 min) was 95 ± 9, the mean blood pressure ([5]; 10 mg/kg p.o., 30 min) was 108 ± 6 and the mean blood pressure ([5]; 10 mg/kg p.o., 45 min) was 111 ± 4. For the same compound, the mean blood pressure ([5]; 10 mg/kg p.o., 60 min) was 112 ± 3, the mean blood pressure ([5]; 10 mg/kg p.o., 90 min) was 114 ± 4 and the mean blood pressure ([5]; 10 mg/kg p.o., 120 min) was 117 ± 4. The “hypotensive action (in words)” value ([5]; p.o., especially 10 mg/kg) was “long-lasting hypotensive action”, the average blood pressure ([6]; 0.1 mg/kg p.o., 0 min) was 167 ± 8 and the average blood pressure ([6]; 0.1 mg/kg p.o., 10 min) was 149 ± 12. It also gave an average blood pressure ([6]; 0.1 mg/kg p.o., 15 min) of 156 ± 8, an average blood pressure ([6]; 0.1 mg/kg p.o., 30 min) of 165 ± 7 and an average blood pressure ([6]; 0.1 mg/kg p.o., 45 min) of 168 ± 7. For the same compound, the average blood pressure ([6]; 0.1 mg/kg p.o., 60 min) was 171 ± 10, the average blood pressure ([6]; 0.1 mg/kg p.o., 90 min) was 177 ± 11 and the average blood pressure ([6]; 0.1 mg/kg p.o., 120 min) was 182 ± 13. The average blood pressure ([6]; 0.3 mg/kg p.o., 0 min) was 165 ± 14, the average blood pressure ([6]; 0.3 mg/kg p.o., 10 min) was 134 ± 12 and the average blood pressure ([6]; 0.3 mg/kg p.o., 15 min) was 141 ± 8. The average blood pressure ([6]; 0.3 mg/kg p.o., 30 min) was 151 ± 7, the average blood pressure ([6]; 0.3 mg/kg p.o., 45 min) was 161 ± 9 and the average blood pressure ([6]; 0.3 mg/kg p.o., 60 min) was 169 ± 9. The average blood pressure ([6]; 0.3 mg/kg p.o., 90 min) was 170 ± 12, the average blood pressure ([6]; 0.3 mg/kg p.o., 120 min) was 180 ± 10 and the “hypotensive action (in words)” value ([6]; p.o., hypertensive rats) was “marked hypotensive action”. For the same compound, the inhibition at 3 mg/kg (platelet aggregation [4]; 1 hr) was 64.9%, the inhibition at 3 mg/kg (platelet aggregation [4]; 4 hr) was 23.3% and the inhibition at 10 mg/kg (platelet aggregation [4]; 1 hr) was 94.1%. For the same compound, the inhibition at 10 mg/kg (platelet aggregation [4]; 4 hr) was 50%.
